{"source": "patent US9155317B2", "about": "“Antifungal compositions” (DSM IP ASSETS B.V., priority 2011, dated 2015)", "key": {"Botrytis cinerea [1]": {"system": "Botrytis cinerea", "test": "In vitro antifungal activity, 96-well microtiter plates", "assay_type": "cell-based", "settings": "5 days at 25° C., alone or combined with natamycin", "experimental": "The following compositions were tested:\n(§1) Subsequently, 100 μl of a Botrytis cinerea suspension prepared in PCB medium was used to inoculated each well with 2.5×10^3 spores/ml.\n(§2) After incubation of the microtiter plates for 5 days at 25° C., the in vitro antifungal activity (%) of the individual active ingredients was assessed by calculating the reduction in mould growth observed in the presence of the active ingredient in comparison to the mould growth observed in the absence of the active ingredient. The expected antifungal activity (E in %) of the active ingredient combination was calculated according to the Colby equation (Colby, 1967): E=X+Y−[(X·Y)/100] wherein X and Y are the observed antifungal activities (in %) of the individual active ingredients X and Y, respectively. If the observed antifungal activity (O in %) of the combination exceeds the expected antifungal activity (E in %) of the combination and the resulting synergy factor O/E is thus >1.0, the combined application of the active ingredients leads to a synergistic antifungal effect."}, "Fusarium proliferatum [2]": {"system": "Fusarium proliferatum", "test": "Treatment of wounded, inoculated bananas (mould growth)", "assay_type": "in vivo", "settings": "20° C.", "experimental": "Four organic, unripe (green) bananas were used per treatment. The peel of each banana was wounded thrice using a cork borer according to the method described by de Lapeyre de Bellaire and Dubois (1987). Subsequently, each wound was inoculated with 15 μl of a Fusarium proliferatum suspension containing 1×10^5 of spores/ml. […] In addition, the antifungal compositions comprised 1.00% (w/w) methylhydroxyethylcellulose (MHEC), 0.40% (w/w) xanthan gum, 0.20% (w/w) anti-foaming agent, 0.30% (w/w) citric acid, 0.39% (w/w) lactic acid and 0.11% (w/w) potassium sorbate. […] The treated, unripe bananas were incubated in a closed box in the dark at 20° C. and a relative air humidity of 95%, which was obtained in the presence of a saturated Na2HPO4 aqueous solution. During the first 20 days of incubation, a ripe (yellow) banana was included in the closed box to elevate the ethylene gas level and thus induce ripening of the treated, unripe bananas.\n(§3) The expected antifungal activity (E in %) of the combined antifungal composition comprising both active ingredients was calculated according to the Colby equation (Colby, 1967): E=X+Y−[(X·Y)/100] wherein X and Y are the observed antifungal activities (in %) of the individual active ingredients X and Y, respectively. If the observed antifungal activity (0 in %) of the combination exceeds the expected antifungal activity (E in %) of the combination and the synergy factor O/E is thus >1.0, the combined application of the active ingredients leads to a synergistic antifungal effect.\nThe degree of mould growth on the banana wounds was assessed according to the two methods described in Example 3."}, "Fusarium proliferatum [3]": {"system": "Fusarium proliferatum", "test": "In vitro antifungal activity, 96-well microtiter plates", "assay_type": "cell-based", "settings": "5 days at 25° C.", "experimental": "as §1, §2\nThe experiment was conducted as described in Example 11, except for the fact that the following compositions were tested:\nFurthermore, Fusarium proliferatum was used for inoculation."}, "Penicillium italicum": {"system": "Penicillium italicum", "test": "Treatment of wounded, inoculated mandarins (mould growth)", "assay_type": "in vivo", "settings": "20° C.", "experimental": "Ten fresh, organic mandarins were used per treatment. The peel of each mandarin was wounded once using a cork borer according to the method described by de Lapeyre de Bellaire and Dubois (1987). Subsequently, each wound was inoculated with 10 μl of a Penicillium italicum suspension containing 1×10^4 of spores/ml.\nas §3, with “The treated mandarins were incubated in a closed box in the dark at 20° C. and assessed on mould growth after 16, 19, 22 and 26 days of incubation. […] The” for “The”, “(O” for “(0”"}, "Botrytis cinerea [4]": {"system": "Botrytis cinerea", "test": "Treatment of wounded, inoculated strawberries (mould growth)", "assay_type": "in vivo", "settings": "20° C., 250 ppm natamycin, 500 ppm pyrimethanil or both", "experimental": "Twelve fresh, organic strawberries were used per treatment. Each strawberry was wounded with a 0.5 mm long cut and each wound was inoculated with 10 μl of a Botrytis cinerea suspension containing 1×10^5 of spores/ml. […] The antifungal composition also comprised 1.00% (w/w) methylhydroxyethylcellulose (MHEC), 0.40% (w/w) xanthan gum, 0.20% (w/w) anti-foaming agent, 0.30% (w/w) citric acid, 0.39% (w/w) lactic acid and 0.11% (w/w) potassium sorbate. A composition without natamycin or pyrimethanil was used as control.\nas §3, with “The treated strawberries were incubated for three days in a closed box in the dark at 20° C. and assessed daily on mould growth. The antifungal activity (in %) of the individual active ingredients was determined by calculating the reduction in mould growth observed on the strawberries treated with the antifungal composition in comparison to the mould growth on the strawberries treated with the control composition. The” for “The”, “(O” for “(0”"}, "[5]": {"settings": "natamycin 1.25 ppm, cyprodinil 10 ppm, pyrimethanil 17.5 ppm"}, "[6]": {"settings": "natamycin […], cyprodinil 20 ppm, pyrimethanil 30 ppm"}, "[7]": {"settings": "250 ppm natamycin, 500 ppm pyrimethanil or both, 23 days"}, "[8]": {"settings": "250 ppm natamycin, 500 ppm pyrimethanil or both, 29 days"}, "[9]": {"settings": "500 ppm natamycin, 1000 ppm pyrimethanil or both, 22 days"}, "[10]": {"settings": "500 ppm natamycin, 1000 ppm pyrimethanil or both, 26 days"}, "[11]": {"settings": "250 ppm natamycin, 500 ppm cyprodinil or both, 21 days"}, "[12]": {"settings": "500 ppm natamycin, 1000 ppm cyprodinil or both, 27 days"}}}
{"smiles": "Cc1cc(C)nc(Nc2ccccc2)n1", "note": "[Pyrimethanil, pyrimethanil]", "values": [{"measurement": "Observed antifungal activity O (%)", "setting": "Botrytis cinerea [1]; [5]", "value": 50, "unit": "%"}, {"measurement": "Observed antifungal activity O (%)", "setting": "Botrytis cinerea [1]; [6]", "value": 50, "unit": "%"}, {"measurement": "Observed antifungal activity O (%)", "setting": "Fusarium proliferatum [2]; [7]", "value": 0, "unit": "%"}, {"measurement": "Observed antifungal activity O (%)", "setting": "Fusarium proliferatum [2]; [8]", "value": 0, "unit": "%"}, {"measurement": "Observed antifungal activity O (%)", "setting": "Fusarium proliferatum [2]; 250 ppm natamycin, 500 ppm pyrimethanil or both, 32 days", "value": 0, "unit": "%"}, {"measurement": "Observed antifungal activity O (%)", "setting": "Fusarium proliferatum [2]; 250 ppm natamycin, 500 ppm pyrimethanil or both, 34 days", "value": 0, "unit": "%"}, {"measurement": "Observed antifungal activity O (%)", "setting": "Fusarium proliferatum [3]; natamycin 2.5 ppm, pyrimethanil 275 ppm or both", "value": 0, "unit": "%"}, {"measurement": "Observed antifungal activity O (%)", "setting": "Penicillium italicum; 250 ppm natamycin, 500 ppm pyrimethanil or both, 19 days", "value": 84, "unit": "%"}, {"measurement": "Observed antifungal activity O (%)", "setting": "Penicillium italicum; 250 ppm natamycin, 500 ppm pyrimethanil or both, 22 days", "value": 74, "unit": "%"}, {"measurement": "Observed antifungal activity O (%)", "setting": "Penicillium italicum; 250 ppm natamycin, 500 ppm pyrimethanil or both, 26 days", "value": 65, "unit": "%"}, {"measurement": "Observed antifungal activity O (%)", "setting": "Penicillium italicum; [9]", "value": 82, "unit": "%"}, {"measurement": "Observed antifungal activity O (%)", "setting": "Penicillium italicum; [10]", "value": 79, "unit": "%"}, {"measurement": "Observed antifungal activity O (%)", "setting": "Botrytis cinerea [4]; 1 day", "value": 0, "unit": "%"}, {"measurement": "Observed antifungal activity O (%)", "setting": "Botrytis cinerea [4]; 2 days", "value": 0, "unit": "%"}, {"measurement": "Observed antifungal activity O (%)", "setting": "Botrytis cinerea [4]; 3 days", "value": 0, "unit": "%"}]}
{"smiles": "Cc1cc(C2CC2)nc(Nc2ccccc2)n1", "note": "[Cyprodinil, cyprodinil]", "values": [{"measurement": "Observed antifungal activity O (%)", "setting": "Botrytis cinerea [1]; [5]", "value": 0, "unit": "%"}, {"measurement": "Observed antifungal activity O (%)", "setting": "Botrytis cinerea [1]; [6]", "value": 0, "unit": "%"}, {"measurement": "Observed antifungal activity O (%)", "setting": "Fusarium proliferatum [2]; 50 ppm natamycin, 250 ppm cyprodinil or both, 23 days", "value": 0, "unit": "%"}, {"measurement": "Observed antifungal activity O (%)", "setting": "Fusarium proliferatum [2]; 50 ppm natamycin, 250 ppm cyprodinil or both, 29 days", "value": 0, "unit": "%"}, {"measurement": "Observed antifungal activity O (%)", "setting": "Fusarium proliferatum [2]; 50 ppm natamycin, 250 ppm cyprodinil or both, 32 days", "value": 0, "unit": "%"}, {"measurement": "Observed antifungal activity O (%)", "setting": "Fusarium proliferatum [2]; 50 ppm natamycin, 250 ppm cyprodinil or both, 36 days", "value": 0, "unit": "%"}, {"measurement": "Number of moulded wounds/total number of 12 wounds", "setting": "Fusarium proliferatum [2]; 250 ppm natamycin, 500 ppm cyprodinil or both, 18 days", "value": "12/12"}, {"measurement": "Number of moulded wounds/total number of 12 wounds", "setting": "Fusarium proliferatum [2]; 250 ppm natamycin, 500 ppm cyprodinil or both, 18 days, listed as cyprodinil", "value": 12}, {"measurement": "Number of moulded wounds/total number of 12 wounds", "setting": "Fusarium proliferatum [2]; [11]", "value": "12/12"}, {"measurement": "Observed antifungal activity O (%)", "setting": "Fusarium proliferatum [2]; [11]", "value": 35, "unit": "%"}, {"measurement": "Number of moulded wounds/total number of 12 wounds", "setting": "Fusarium proliferatum [2]; 250 ppm natamycin, 500 ppm cyprodinil or both, 21 days, listed as cyprodinil", "value": 12}, {"measurement": "Observed antifungal activity O (%)", "setting": "Fusarium proliferatum [2]; 250 ppm natamycin, 500 ppm cyprodinil or both, 32 days", "value": 3, "unit": "%"}, {"measurement": "Observed antifungal activity O (%)", "setting": "Fusarium proliferatum [2]; 250 ppm natamycin, 500 ppm cyprodinil or both, 34 days", "value": 0, "unit": "%"}, {"measurement": "Number of moulded wounds/total number of 12 wounds", "setting": "Fusarium proliferatum [2]; 500 ppm natamycin, 1000 ppm cyprodinil or both, 23 days", "value": "12/12"}, {"measurement": "Number of moulded wounds/total number of 12 wounds", "setting": "Fusarium proliferatum [2]; 500 ppm natamycin, 1000 ppm cyprodinil or both, 23 days, listed as cyprodinil", "value": 12}, {"measurement": "Number of moulded wounds/total number of 12 wounds", "setting": "Fusarium proliferatum [2]; [12]", "value": "12/12"}, {"measurement": "Observed antifungal activity O (%)", "setting": "Fusarium proliferatum [2]; [12]", "value": 18, "unit": "%"}, {"measurement": "Number of moulded wounds/total number of 12 wounds", "setting": "Fusarium proliferatum [2]; 500 ppm natamycin, 1000 ppm cyprodinil or both, 27 days, listed as cyprodinil", "value": 12}, {"measurement": "Observed antifungal activity O (%)", "setting": "Fusarium proliferatum [2]; 500 ppm natamycin, 1000 ppm cyprodinil or both, 39 days", "value": 0, "unit": "%"}, {"measurement": "Observed antifungal activity O (%)", "setting": "Fusarium proliferatum [3]; natamycin 1.25 ppm, cyprodinil 125 ppm or both", "value": 0, "unit": "%"}, {"measurement": "Observed antifungal activity O (%)", "setting": "Penicillium italicum; 250 ppm natamycin, 500 ppm cyprodinil or both, 16 days", "value": 60, "unit": "%"}, {"measurement": "Observed antifungal activity O (%)", "setting": "Penicillium italicum; 250 ppm natamycin, 500 ppm cyprodinil or both, 19 days", "value": 38, "unit": "%"}, {"measurement": "Observed antifungal activity O (%)", "setting": "Penicillium italicum; 250 ppm natamycin, 500 ppm cyprodinil or both, 22 days", "value": 20, "unit": "%"}, {"measurement": "Observed antifungal activity O (%)", "setting": "Penicillium italicum; 250 ppm natamycin, 500 ppm cyprodinil or both, 26 days", "value": 13, "unit": "%"}]}
{"smiles": "C[C@@H]1C/C=C/C=C/C=C/C=C/[C@H](O[C@@H]2O[C@H](C)[C@@H](O)[C@H](N)[C@@H]2O)C[C@@H]2O[C@](O)(C[C@@H](O)C[C@H]3O[C@@H]3/C=C/C(=O)O1)C[C@H](O)[C@H]2C(=O)O", "note": "[Natamycin, natamycin]", "values": [{"measurement": "Observed antifungal activity O (%)", "setting": "Fusarium proliferatum [2]; [7]", "value": 19, "unit": "%"}, {"measurement": "Observed antifungal activity O (%)", "setting": "Fusarium proliferatum [2]; [8]", "value": 9, "unit": "%"}, {"measurement": "Observed antifungal activity O (%)", "setting": "Penicillium italicum; [9]", "value": 37, "unit": "%"}, {"measurement": "Observed antifungal activity O (%)", "setting": "Penicillium italicum; [10]", "value": 30, "unit": "%"}, {"measurement": "Observed antifungal activity O (%)", "setting": "Botrytis cinerea [4]; 1 day", "value": 25, "unit": "%"}, {"measurement": "Observed antifungal activity O (%)", "setting": "Botrytis cinerea [4]; 2 days", "value": 31, "unit": "%"}, {"measurement": "Observed antifungal activity O (%)", "setting": "Botrytis cinerea [4]; 3 days", "value": 24, "unit": "%"}]}
